Values of other authors in publication PMC10700596 (Nature Communications, 2023).

Conditions: cited from earlier work

Compound: CCc1nc2c(C)nc(C)cc2n1-c1ccc(CCNC(=O)NS(=O)(=O)c2ccc(C)cc2)cc1 [Grapiprant, reference compound]
- reported oral bioavailability: 5%
